PMC9344462 (Journal of Medicinal Chemistry, 2022)

Legend:
PknGΔTPRΔ73 mutant Y234L = PknGΔTPRΔ73 mutant Y234L (Mycobacterium tuberculosis, UniProt P9WI73, Y234L); assay type: binding; conditions: 100 µM
PknGΔTPRΔ73 mutant V235P = PknGΔTPRΔ73 mutant V235P (Mycobacterium tuberculosis, UniProt P9WI73, V235P); assay type: binding; conditions: 100 µM
PknGΔTPRΔ73 mutant I292G = PknGΔTPRΔ73 mutant I292G (Mycobacterium tuberculosis, UniProt P9WI73, I292G); assay type: binding; conditions: 100 µM
[1] = molecular target: full-length PknG with natural substrate GarA (Mycobacterium tuberculosis, UniProt P9WI73); experiment: Kinase Glo Plus luminescent end point inhibition assay; assay type: biochemical; conditions: tethered docking compounds assayed at 40 μM

Compound	shift in the melting temperature (PknGΔTPRΔ73 mutant Y234L)	shift in the melting temperature (PknGΔTPRΔ73 mutant V235P)	shift in the melting temperature (PknGΔTPRΔ73 mutant I292G)	kinase activity [1]
NC(=O)c1c(N)c(C(=O)c2ccc(F)cc2)n2ccccc12 [B1]	no shift	no shift	no shift	
CC(C)c1ccc(C(=O)c2c(N)c(C(N)=O)c3ccccn23)cc1 [T1]				considerably diminished kinase activity
NC(=O)c1c(NC(=O)NCC2CCCO2)sc2c1CCCC2 (stereo not drawn) [T2]				considerably diminished kinase activity
CCN1CCCC1CNC(=O)Nc1sc2c(c1C(N)=O)CCCC2 (stereo not drawn) [T3]				considerably diminished kinase activity
